Measured values: patent US8680367B2, “Method to prime plants in order to increase their pathogen resistance” (priority 2004, dated 2014)

Test system: callose deposition
Assay: Callose deposition in Arabidopsis after Peronospora parasitica infection
Format: in vivo
Conditions: positive control plants treated with BABA
Method: This is represented by the disease index on the Y axis. […] Resistance assays were performed as described previously (Plant Cell 1996, 8, 1225-1237; Plant cell 1998, 10, 1571-1580). B. KO of RKS4 (rks4-1; increased expression of N-terminus, see FIG. 4) also increases resistance to Peronospora parasitica, although less than the positive control induced with β-aminobutyric acid (BABA). Plants were scored using an arbitrary scale I-IV, in which I means normal to very slight symptoms and IV means severe symptoms to death. C. […] Both tests were performed as described in (Plant Cell., 2005, 17, 987-999).
Callose deposition was observed on Arabidopsis leaves after infection with Hyaloperonospora parasitica essentially as described by Ton et al. (Plant Cell (2005) 17(3):987-999).

CC(N)CC(=O)O (stereo not drawn) [BABA, β-aminobutyric acid]
Callose deposition upon treatment: increased
